Measured values taken from patent US20220235029A1, “CRYSTAL FORM OF C-MET/AXL INHIBITOR” (MEDSHINE DISCOVERY INC., priority 2019, published 2022).

Columns and labels:
[1] = Study on the hygroscopicity (DVS detection); format: physicochemical; settings: 25° C./80% RH
Protocol: Dynamic Vapor Sorption (DVS) Instrument in the Present Disclosure
Instrument model: DVS Advantage-1 (SMS)
Detection condition: about 10-15 mg of the sample was used for DVS detection.
Equilibrium: dm/dt=0.01%/min: (time: 10 min, longest: 180 min)
RH (%) gradient for testing: 10%
RH (%) gradient range for testing: 0%-90%-0%
The hygroscopicity was evaluated using the judgment criterias in the following Table 6: […]

[2] = tested on: MKN45 gastric cancer cell line; assay: Cell proliferation inhibition experiment (CellTiter-Glo); format: cell-based
Protocol: Reagents and Consumables:
The cell plates were incubated in a carbon dioxide incubator for 3 days.

[3] = tested on: human Hs746t gastric cancer cell xenograft tumor model; assay: In vivo pharmacodynamic study, Hs746t gastric cancer cell xenograft tumor model; parameters: species or system BALB/c nude mice; settings: for Tumor volume (mm^3) (20th day): average value ± SEM, Hs746t xenograft in BALB/c nude mice; for T/C (%) / TGI (%): calculated based on the tumor volume on the 21st day after administration
Protocol: Human gastric cancer HS 746T cells were cultured in a single layer in vitro. The culturing condition was DMEM medium supplemented with 10% fetal bovine serum, 100 U/mL penicillin and […] in 37° C., 5% CO2 incubator. Digestion and passage treatment with trypsin-EDTA was carried out twice a week. When the cell saturation was 80%-90% and the number reached the required level, the cells were collected, counted and seeded.
BALB/c nude mice, male. 6-8 weeks old, weighting 18-22 g.
0.2 mL (2×10^6, cells:Matrigel=1:1) HS 746T cells were inoculated subcutaneously on the right back of each mouse. The drug was administered in groups when the average tumor volume reached approximately 100-150 mm^3.
Experimental index: The experimental index was whether the tumor growth was inhibited, delayed or cured. The diameters of the tumor were measured twice a week using a vernier caliper. The formula for calculating the tumor volume is V=0.5a×b^2, a and b represent the long and short diameters of the tumor respectively. The antitumor effect (TGI) of the compound was evaluated by T-C (days) and T/C (%).

| Structure (SMILES) | Classification of hygroscopicity [1] | Hygroscopic weight gain at 25/80% RH [1] | inhibitory activity on MKN45 cell (in words) [2] | Tumor volume (mm^3) (20th day) [3] | T/C (%) [3] | TGI (%) [3] | tumor inhibitory effect (in words) ([3]; Hs746t gastric cancer cell xenograft tumor model) |
| --- | --- | --- | --- | --- | --- | --- | --- |
| CN(C)C(=O)Nc1cc(Oc2ccc(NC(=O)c3cn(CC4CC4)c(=O)n(-c4ccc(F)cc4)c3=O)cc2F)ccn1 | slightly hygroscopic | 0.2801% | good inhibitory activity | – | – | – | – |
| CN(C)C(=O)Nc1cc(Oc2ccc(NC(=O)c3cn(CC4CC4)c(=O)n(-c4ccc(F)cc4)c3=O)cc2F)ccn1.Cc1ccc(S(=O)(=O)O)cc1 | slightly hygroscopic | 0.999% | – | – | – | – | – |
| CCOc1ccn(-c2ccc(F)cc2)c(=O)c1C(=O)Nc1ccc(Oc2ccnc(N)c2Cl)c(F)c1 [BMS777607] | – | – | – | 1872 ± 355 mm^3 | 27.61% | 73.58% | – |
| CN(C)C(=O)Nc1cc(Oc2ccc(NC(=O)c3cn(CC4CC4)c(=O)n(-c4ccc(F)cc4)c3=O)cc2F)ccn1 [Compound represented by formula (I)] | – | – | – | 4 ± 2 mm^3 | 104.82% | 0.15% | better tumor inhibitory effect than BMS777607 and LY2801653 |
| Cc1ccc(C(=O)Nc2ccc(Oc3cc4cnn(C)c4cc3-c3cn[nH]c3)c(F)c2)c(=O)n1-c1ccc(F)cc1 [LY2801653] | – | – | – | 88 ± 13 mm^3 | 101.62% | 3.45% | – |
